Each structure is given as a SMILES string. Where a name gives a salt, the structure may show the parent alone.

With `O=C(c1cc(Cc2ccccc2)cc(Cn2ccnc2)c1)c1cc(Cl)c2cccnc2c1O` (as salt: TFA), the melting point (usually the temperature, or range, at which the solid turns liquid) fell in the range of 148 to 150 °C.

The compound `Cc1cc(C(=O)c2cccc(Cc3ccccc3)c2)c(O)c2ncccc12` came in with a melting point of 123 to 124 °C.

These data come from patent US20050010048A1 (published 2005).
